# Data reported in patent US20030055046A1, “Novel pyrido cyclohexenyl phenyl carboxamides tocolytic oxytocin receptor antagonists” (Wyeth, priority 2001, published 2003).
# Where a name gives a salt, the structure may show the parent alone.
# Biological target: T1, human vasopressin V2 receptor subtype (Homo sapiens, UniProt P30518)
# T1 construct: host or cells: CHO cells, stably transfected (pZeoSV vector)
# Experiment: Vasopressin binding in CHO cell membranes expressing human vasopressin V2 subtype receptors
# Settings: 100 nM, [3H]arginine vasopressin
# From the text: Vasopressin Binding in Chinese Hamster Ovary Cell Membranes Expressing Human Vasopressin V2 Subtype Receptors
# Chinese Hamster Ovary (CHO) cells stably transfected with the human V2 subtype receptors were obtained from M. Thibonnier, Case Western Reserve University School of Medicine, Cleveland, Ohio.
# A. Passaging and Amplification of Cells:
# CHO cells transfected with the human vasopressin V2 subtype receptors obtained from M. Thibonnier (pZeoSV vector) are allowed to grow to confluency (approx. >90%) in T-150 flasks under sterile conditions, in a cell culture medium consisting of F-12 Nutrient Mixture (HAM) with L-glutamine (Gibco Cat.# 11765-054) containing 15 mM HEPES (Gibco Cat.# 15630-080), 1% antibiotic/antimycotic (add 5 mL 100×, Gibco Cat.# 15240-062 per 500 mL F-12), 250 μg/mL Zeocin (add 1.25 mL of 100 mg/mL Invitrogen R-250-01 per 500 mL F-12) and 10% Fetal Bovine Serum (Qualified, heat inactivated, Gibco Cat.# 16140-063). The medium is removed by aspiration and the cells washed with 10 mL of Hank's Balanced Salt solution (Gibco Cat.# 14175-095). The salt solution is removed by aspiration and the cells trypsinized with 5 mL of trypsin-EDTA (0.05% trypsin, 0.53 mM EDTA-4Na, Gibco Cat.# 25300-070) for 1 min. The trypsin is removed by aspiration and the cells dislodged by tapping. Cell Culture medium (e.g. 30 mL for 1:30 split) is immediately added and mixed well to inactivate trypsin. 1 mL of detached cells is added to new culture flasks containing fresh Cell Culture medium (e.g. into 25 mL per T-150 flask), and mixed gently. The cells are incubated at 37° C. in 5% CO2. The medium is changed at 3 to 4 day interval (or as appropriate). The cells grow to confluency (approx. >75%-95%) within 7-8 days. All steps are done under sterile conditions.
# The cells are washed twice gently with Hank's Balanced Salt solution (e.g. use 10 mL per T-150 flask). The excess solution is removed and the cells bathed for 15-30 min. in an enzyme-free Cell Dissociation Buffer (e.g. use 8 mL Hank's Based, Gibco Cat.# 13150-016 per T-150 flask) until cells are loosened. The contents are transferred to centrifuge tubes (50 mL) kept in an ice bath. All subsequent steps are done at 4° C. The tubes are centrifuged at 300×g for 15 min (1380 rpm on SORVAL, Model RT6000D, using the rotor for 50 mL tubes). The supernatant is discarded and the cells suspended in homogeneizing buffer(10 mM Tris-HCl containing 0.25 M sucrose and 1 mM EDTA, pH 7.4) ensuring that the volume of the buffer is about ten times the volume of the cell pellet. The cells are pooled into a centrifuge tube (50 mL) and homogenized with Polytron at setting 6 for 10 sec. The homogenate is transferred into a Potter-Elvjehm homogeneizer and homogenized with 3 strokes. The homogenate is centrifuged at 1500×g for 60 min at 4° C. (3100 rpm using SORVAL, model RT6000D, using the rotor for 50 mL tubes). The pellet is discarded. The supernatant is centrifuged at 100,000×g for 60 min. at 4° C. (Beckman L8-80M ultracentrifuge; spin at 37,500 rpm with rotor type 70 Ti for 50 mL tubes; 38,000 rpm with type 80Ti for 15 mL tubes; or 35,800 rpm with rotor type 45Ti). The supernatant is discarded and the pellet suspended in 3 to 4 mL of Tris buffer (50 mM TRIS-HCl, pH 7.4). The protein content is estimated by the Bradford or Lowry method. The volume of the membrane suspension is adjusted with the membrane buffer (50 mM Tris-HCl containing 0.1% BSA and 0.1 mM PMSF) to give 3.0 mg/mL (or as appropriate) of protein. The membranes are aliquoted and stored at −70° C.
# C. Radioligand Binding Assay:
# In wells of a 96-well format microtiter plate, is added 90, 110 or 130 μL (to make up a final volume of 200 μL) of assay buffer containing 50 mM of Tris-HCl (pH 7.4), […], 1 mg % aprotinin, 1 mg % leupeptin, 2 mg % 1,10-phenanthroline, 10 mg % trypsin inhibitor, and 0.1 mM PMSF. The inhibitors are added on the day of the experiment. […]
# T1 sequence (P30518 whole entry): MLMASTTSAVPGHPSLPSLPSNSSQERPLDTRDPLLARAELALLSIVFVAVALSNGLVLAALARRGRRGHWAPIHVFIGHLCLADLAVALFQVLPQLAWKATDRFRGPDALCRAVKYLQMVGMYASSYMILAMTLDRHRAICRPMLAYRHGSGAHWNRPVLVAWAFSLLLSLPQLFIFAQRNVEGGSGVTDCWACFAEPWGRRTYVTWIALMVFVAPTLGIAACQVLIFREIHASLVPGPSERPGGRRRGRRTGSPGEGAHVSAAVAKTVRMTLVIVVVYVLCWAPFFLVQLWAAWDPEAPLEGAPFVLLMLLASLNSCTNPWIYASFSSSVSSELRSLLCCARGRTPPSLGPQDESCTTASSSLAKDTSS
row,Structure (SMILES),V2 % inhibition @ 100 nM
1,"CC1=C(c2ccc(C(=O)N3Cc4ccc(C(=O)N(C)Cc5cccnc5)n4Cc4ccccc43)cc2C)CCC[C@H]1O.O=C(O)C(O)C(O)C(=O)O [Example 4, 10-[4-((3R)-3-Hydroxy-2-methyl-cyclohex-1-en-1-yl)-3-methyl-benzoyl]-10,11-dihydro-5H-pyrrolo[2,1-c][1,4]benzodiazepine-3-carboxylic acid methyl-pyridin-3-yl methyl-amide L-(+)-tartaric acid salt]",20%
2,"Cc1cc(C(=O)N2Cc3ccc(C(=O)NCCc4ccccn4)n3Cc3ccccc32)ccc1C1=CCCCC1 [Example 7, 10-[4-(1-Cyclohex-1-en-1-yl)-3-methylbenzoyl]-N-[2-(2-pyridinyl)ethyl]-10,11-pyrrolo[2,1-c][1,4]benzodiazepine-3-carboxamide]",6%
3,"CC1=C(c2ccc(C(=O)N3Cc4ccc(C(=O)N(C)Cc5cccnc5)n4Cc4ccccc43)cc2C)CCC[C@H]1O [Example 3, 10-[4-((3R)-3-Hydroxy-2-methyl-cyclohex-1-en-1-yl)-3-methyl-benzoyl]-10,11-dihydro-5H-pyrrolo[2,1-c][1,4]benzodiazepine-3-carboxylic acid methyl-pyridin-3-yl methyl-amide]",7%
4,"Cc1cc(C(=O)N2Cc3ccc(C(=O)N(C)CCc4ccccn4)n3Cc3ccccc32)ccc1C1=CCCCC1 [Example 8, 10-[4-(1-Cyclohex-1-en-1-yl)-3-methylbenzoyl]-N-methyl-N-[2-(2-pyridinyl)ethyl]-10,11-dihydro-5H-pyrrolo[2,1-c][1 ,4]benzodiazepine-3-carboxamide]",16%

# Second part, the molecule after the results:
row,V2 % inhibition @ 100 nM,Structure (SMILES)
1,12%,"Cc1cc(C(=O)N2Cc3ccc(C(=O)N(C)CCc4ccncc4)n3Cc3ccccc32)ccc1C1=CCCCC1 [Example 13, 10-[4-(1-Cyclohex-1-en-1-yl)-3-methylbenzoyl]-N-methyl-N-[2-(4-pyridinyl)ethyl]-10,11-dihydro-5H-pyrrolo[2,1-c][1,4]benzodiazepine-3-carboxamide]"
2,15%,"Cc1cc(C(=O)N2Cc3ccc(C(=O)NCc4ccncc4)n3Cc3ccccc32)ccc1C1=CCCCC1 [Example 10, 10-[4-(1-Cyclohex-1-en-1-yl)-3-methylbenzoyl]-N-(4-pyridinylmethyl)-10,11-dihydro-5H-pyrrolo[2,1-c][1,4]benzodiazepine-3-carboxamide]"
3,21%,"Cc1cc(C(=O)N2Cc3ccc(C(=O)N4CCN(c5ccccn5)CC4)n3Cc3ccccc32)ccc1C1=CCCCC1 [Example 9, {10-[4-(1-Cyclohex-1-en-1-yl)-3-methylbenzoyl]-10,11-dihydro-5H-pyrrolo[2,1-c][1,4]benzodiazepin-3-yl}[4-(2-pyridinyl)-1-piperazinyl]methanone]"
4,12%,"Cc1cc(C(=O)N2Cc3ccc(C(=O)NCc4ccccn4)n3Cc3ccccc32)ccc1C1=CCCCC1 [Example 5, 10-[4-(1-Cyclohex-1-en-1-yl)-3-methylbenzoyl]-N-(2-pyridinylmethyl)-10,11-dihydro-5H-pyrrolo[2,1-c][1,4]benzodiazepine-3-carboxamide]"
5,3%,"Cc1cc(C(=O)N2Cc3ccc(C(=O)NCc4cccnc4)n3Cc3ccccc32)ccc1C1=CCCCC1 [Example 6, 10-[4-(1-Cyclohex-1-en-1-yl)-3-methylbenzoyl]-N-(3-pyridinylmethyl)-10,11-dihydro-5H-pyrrolo[2,1-c][1 ,4]benzodiazepine-3-carboxamide]"
6,21%,"Cc1cc(C(=O)N2Cc3ccc(C(=O)N4CCN(c5ccncc5)CC4)n3Cc3ccccc32)ccc1C1=CCCCC1 [Example 12, {10-[4-(1-Cyclohex-1-en-1-yl)-3-methylbenzoyl]-10,11-dihydro-5H-pyrrolo[2,1--c][1,4]benzodiazepin-3-yl}[4-(4-pyridinyl)-1-piperazinyl]methanone]"
7,17%,"Cc1cc(C(=O)N2Cc3ccc(C(=O)N(C)Cc4cccnc4)n3Cc3ccccc32)ccc1C1=CCCCC1 [Example 11, 10-[4-(1-Cyclohex-1-en-1-yl)-3-methylbenzoyl]-N-methyl-N-(3-pyridinylmethyl)-10,11-dihydro-5H-pyrrolo[2,1-c][1,4]benzodiazepine-3-carboxamide]"

# Same assay, conditions: [3H]arginine vasopressin, value in parentheses
row,IC50,Structure (SMILES)
1,1420 nM,"COc1cc(C2=CCCCC2)c(Cl)cc1C(=O)N1Cc2ccc(C(=O)N(C)Cc3cccnc3)n2Cc2ccccc21 [Example 2, 10-(5-Chloro-4-cyclohex-1-en-1-yl-2-methoxybenzoyl)-N-methyl-N-(pyridin-3-ylmethyl)-10,11-dihydro-5H-pyrrolo[2,1-c][1,4]benzodiazepine-3-carboxamide L-(+)-tartaric acid salt hemihydrate]"
2,1190 nM,"COc1cc(C2=CCCCC2)c(Cl)cc1C(=O)N1Cc2ccc(C(=O)N(C)Cc3cccnc3)n2Cc2ccccc21 [Example 1, 10-(5-Chloro-4-cyclohex-1-en-1-yl-2-me3thoxybenzoyl)-N-methyl-N-(pyridin-3-ylmethyl)-10,11-dihydro-5H-pyrrolo [2,1-c][1,4]benzodiazepine-3-carboxamide]"
